For orientation: IC50 means the concentration at which inhibition is half-maximal. Broadly, the inhibition is the change of the read-out against control, counted positive when it falls. Low values mean little suppression, high ones strong suppression.

Structures can show the parent of a compound that is named as a salt.

This note sets out measurements from patent US20160031855A1, “PROTEIN KINASE INHIBITORS” (ORION CORPORATION, priority 2013, published 2016).

For this experiment, the target named is T1, FGFR1 kinase (Homo sapiens, UniProt P11362).
T1 construct: purchased Upstate, USA
T1 sequence (P11362 22-822): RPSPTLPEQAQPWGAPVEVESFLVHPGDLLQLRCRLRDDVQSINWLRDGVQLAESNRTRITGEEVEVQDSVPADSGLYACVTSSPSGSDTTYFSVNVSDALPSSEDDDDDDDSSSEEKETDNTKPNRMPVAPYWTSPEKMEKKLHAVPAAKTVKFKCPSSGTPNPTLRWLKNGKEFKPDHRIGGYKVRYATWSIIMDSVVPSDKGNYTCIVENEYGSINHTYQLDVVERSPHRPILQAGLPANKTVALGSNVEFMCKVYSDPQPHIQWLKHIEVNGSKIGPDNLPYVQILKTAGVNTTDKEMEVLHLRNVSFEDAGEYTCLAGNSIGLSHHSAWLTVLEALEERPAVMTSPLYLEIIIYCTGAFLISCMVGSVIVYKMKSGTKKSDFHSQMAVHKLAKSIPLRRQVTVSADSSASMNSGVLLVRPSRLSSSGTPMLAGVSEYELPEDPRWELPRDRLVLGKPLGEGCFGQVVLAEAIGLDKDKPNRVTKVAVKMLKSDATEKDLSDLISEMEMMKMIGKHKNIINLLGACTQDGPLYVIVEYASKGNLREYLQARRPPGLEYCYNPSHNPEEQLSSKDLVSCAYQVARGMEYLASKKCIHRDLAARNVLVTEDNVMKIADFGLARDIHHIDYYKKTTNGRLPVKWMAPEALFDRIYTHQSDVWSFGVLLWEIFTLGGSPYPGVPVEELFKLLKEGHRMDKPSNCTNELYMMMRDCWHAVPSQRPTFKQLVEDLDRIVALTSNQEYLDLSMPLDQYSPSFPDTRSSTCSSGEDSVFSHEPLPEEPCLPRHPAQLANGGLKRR
Put plainly: TR-FRET assay with FGFR1 kinase. The experiment is classed as biochemical. Particulars: 13 μM ATP; for IC50: dose response, read-out: IC50 of FGFR1 inhibition; for inhibition at 1 µM / Inhibition (%) of FGFR1 at 1000 nM: compound at 1000 nM. As for the experimental part:
1. Inhibition of FGFR1 kinase
Compounds were screened in the TR-FRET assay with FGFR1 kinase. 5 ng of FGFR1 [Upstate, USA] kinase was used for assay. The compound was incubated with the kinase for 30 minutes at room temperature. After the incubation, substrate mix [40 nM Ultra light poly GT (Perkin Elmer, USA) and 13 μM ATP (Sigma)] was added. The above reaction was stopped by the addition of 40 mM EDTA after the 30 min kinase reaction. The Eu-labelled antiphospho-tyrosine antibody [Perkin Elmer, USA] was added at 0.5 nM and the fluorescence emission at 615 nm/665 nm [excitation at 340 nm] was measured. The compounds were initially screened at 100 nM and 1 μM concentrations. The compounds with >50% inhibition at 100 nM of FGFR1 were taken for the full dose response studies. The final DMSO concentration in the assay was 1%. For IC50 determination, ⅓^rd serial dilution was made from the 20 mM DMSO stock solution. 2 μl of these were transferred to the test wells containing […] of the reaction mixture [total reaction volume 20 μl]. The fluorescence was measured in Perkin Elmer Wallac 1420 Multilabel Counter Victor 3. The IC50 was determined by fitting the dose response data to sigmoidal curve fitting equation using GraphPad Prism software V5.
(In general: TR-FRET usually uses a lanthanide donor and a delayed reading to cut background.)

With `Cn1cnc(-c2ccc3c(c2)ncn3-c2cc(-c3ccc(F)cc3F)cc(NS(=O)(=O)C3CC3)n2)c1` [Example 37, N-(4-(2,4-difluorophenyl)-6-(5-(1-methyl-1H-imidazol-4-yl)-1H-benzo[d]-imidazol-1-yl)pyridin-2-yl)cyclopropanesulfonamide], the IC50 came to 1.3 nM and testing at 1 µM gave an inhibition of 99%.
In the same order, the values of `CC(C)S(=O)(=O)Nc1cc(-c2ccccc2F)cc(-n2cnc3cc(-c4cnn(C)c4)ccc32)n1` [Example 12, N-(4-(2-fluorophenyl)-6-(5-(1-methyl-1H-pyrazol-4-yl)-1H-benzo[d]imidazol-1-yl)pyridin-2-yl)propane-2-sulfonamide] are 1.5 nM and 97%.
Taken in the same sequence, the figures for `CC(=O)Nc1cc(-c2ncc(F)cc2F)cc(-n2cnc3cc(-c4cnn(C)c4)ccc32)n1` [Example 26, N-(3,5-difluoro-6′-(5-(1-methyl-1H-pyrazol-4-yl)-1H-benzo[d]imidazol-1-yl)-[2,4′-bipyridin]-2′-yl)acetamide] were 21.9 nM and 94%.
As for `CC(=O)Nc1nc(-c2ccc(F)cc2F)cc(-n2cnc3cc(-c4cnn(C)c4)ccc32)n1` [Example 38, N-(4-(2,4-difluorophenyl)-6-(5-(1-methyl-1H-pyrazol-4-yl)-1H-benzo[d]-imidazol-1-yl)pyrimidin-2-yl)acetamide], the concentration for half-maximal inhibition (IC50) stood at 12 nM and at 1 µM the inhibition was 87%.
As to `CCS(=O)(=O)Nc1cc(-c2ccccc2F)cc(-n2cnc3cc(-c4cnn(C)c4)ccc32)n1` [Example 11 (imido), Sodium salt of imido form of N-(4-(2-fluorophenyl)-6-(5-(1-methyl-1H-pyrazol-4-yl)-1H-benzo[d]imidazol-1-yl)pyridin-2-yl)ethanesulfonamide], the IC50 was found to be 3.2 nM and the “Inhibition (%) of FGFR1 at 1000 nM” value is on record as 98%.
On to `O=S(=O)(Nc1cc(-c2ccc(F)cc2F)cc(-n2cnc3cc(-c4cnn(CCN5CCOCC5)c4)ccc32)n1)C1CC1` [Example 33, N-(4-(2,4-difluorophenyl)-6-(5-(1-(2-morpholinoethyl)-1H-pyrazol-4-yl)-1H-benzo[d]imidazol-1-yl)pyridin-2-yl)cyclopropanesulfonamide], for which the IC50 came out at 2 nM and testing at 1 µM gave an inhibition of 99%.
Taken in the same sequence, the figures for `Cn1cc(-c2ccc3c(c2)ncn3-c2cc(-c3ccc(F)cc3F)nc(NS(=O)(=O)C3CC3)n2)cn1` [Example 41, N-(4-(2,4-difluorophenyl)-6-(5-(1-methyl-1H-pyrazol-4-yl)-1H-benzo[d]-imidazol-1-yl)pyrimidin-2-yl)cyclopropanesulfonamide] were 32.7 nM and 93%.
For the molecule `Cn1cc(-c2ccc3c(c2)ncn3-c2cc(-c3ncccc3Cl)cc(NS(=O)(=O)C3CC3)n2)cn1` [Example 29, N-(3-chloro-6′-(5-(1-methyl-1H-pyrazol-4-yl)-1H-benzo[d]imidazol-1-yl)-[2,4′-bipyridin]-2′-yl)cyclopropanesulfonamide], the IC50 came to 9.7 nM and the inhibition at 1 µM was 97%.
In the case of `CC(C)S(=O)(=O)Nc1cc(-c2ccc(F)cc2)cc(-n2cnc3cc(-c4cnn(C)c4)ccc32)n1` [Example 17, N-(4-(4-fluorophenyl)-6-(5-(1-methyl-1H-pyrazol-4-yl)-1H-benzo[d]imidazol-1-yl)pyridin-2-yl)propane-2-sulfonamide], the half-maximal inhibitory concentration (IC50) amounted to 4.6 nM and the inhibition at 1 µM was determined as 96%.
Regarding `Cn1cc(-c2ccc3c(c2)ncn3-c2cc(-c3ccccc3F)cc(NS(=O)(=O)C3CC3)n2)cn1` [Example 8, N-(4-(2-fluorophenyl)-6-(5-(1-methyl-1H-pyrazol-4-yl)-1H-benzo[d]imidazol-1-yl)pyridin-2-yl)cyclopropanesulfonamide], the IC50 came out at 5.42 nM and the inhibition at 1 µM turned out to be 99%.
In the case of `CN(C)CCn1cc(-c2ccc3c(c2)ncn3-c2cc(-c3ccc(F)cc3F)cc(NS(=O)(=O)C3CC3)n2)cn1` [Example 21, N-(4-(2,4-difluorophenyl)-6-(5-(1-(2-(dimethylamino)ethyl)-1H-pyrazol-4-yl)-1H-benzo[d]imidazol-1-yl)pyridin-2-yl)cyclopropanesulfonamide], the IC50 stood at 3.7 nM and 1 µM produced 99% inhibition.
For `Cn1cc(-c2ccc3c(c2)ncn3-c2cc(-c3ccccc3F)cc(NS(=O)(=O)C3CC3)n2)cn1` [Example 8 (imido), Sodium salt of imido form of N-(4-(2-fluorophenyl)-6-(5-(1-methyl-1H-pyrazol-4-yl)-1H-benzo[d]imidazol-1-yl)pyridin-2-yl)cyclopropanesulfonamide], the IC50 is 3.3 nM and the “Inhibition (%) of FGFR1 at 1000 nM” value came out at 97%.
For the molecule `CCS(=O)(=O)Nc1cc(-c2ccccc2F)cc(-n2cnc3cc(-c4cnn(C)c4)ccc32)n1` [Example 11, N-(4-(2-fluorophenyl)-6-(5-(1-methyl-1H-pyrazol-4-yl)-1H-benzo[d]imidazol-1-yl)pyridin-2-yl)ethanesulfonamide], the IC50 turned out to be 2.8 nM and at 1 µM the inhibition was 98%.
For `Cn1cc(-c2ccc3c(c2)ncn3-c2cc(-c3ccccc3Cl)cc(NS(=O)(=O)C3CC3)n2)cn1` [Example 28, N-(4-(2-chlorophenyl)-6-(5-(1-methyl-1H-pyrazol-4-yl)-1H-benzo[d]imidazol-1-yl)pyridin-2-yl)cyclopropanesulfonamide], the IC50 was 7.2 nM and the inhibition at 1 µM was determined as 97%.
Taken in the same sequence, the figures for `Cn1cc(-c2ccc3c(c2)ncn3-c2cc(-c3ccc(F)cc3)cc(NS(=O)(=O)C3CC3)n2)cn1` [Example 14] were 14.4 nM and 98%.
As to `CC(C)S(=O)(=O)Nc1cc(-c2ccc(F)cc2F)cc(-n2cnc3cc(-c4cnn(C)c4)ccc32)n1` [Example 6, N-(4-(2,4-difluorophenyl)-6-(5-(1-methyl-1H-pyrazol-4-yl)-1H-benzo[d]-imidazol-1-yl)pyridin-2-yl)propane-2-sulfonamide], the IC50 was determined as 1.7 nM and the inhibition at 1 µM was found to be 99%.
As to `Cn1cc(-c2ccc3c(c2)ncn3-c2cc(-c3ncccc3F)cc(NS(=O)(=O)C3CC3)n2)cn1` [Example 18, N-(3-fluoro-6′-(5-(1-methyl-1H-pyrazol-4-yl)-1H-benzo[d]imidazol-1-yl)-[2,4′-bipyridin]-2-yl)cyclopropanesulfonamide], the IC50 amounted to 5 nM and the “Inhibition (%) of FGFR1 at 1000 nM” value came to 97%.
